Laboratory results as given in PubChem BioAssay AID1918957 (Molecular Pharmacology Branch, DTP, NCI, 2023).

Tested on: NCI-H1876 complex spheroid viability
Test: Anticancer human tumor NCI-H1876 cell line growth inhibition [LSD1];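 note: spheroids exposed to compounds for one week before readout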;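 for viability, T/C: 100% = DMSO vehicle-treated spheroids so lower means fewer viable cells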
Details: for IC50: curve of first compound; for viability, T/C: stronger effect = lower value; active = viability on the fitted dose curve at most 10% of control; inactive = the rest
Excerpt: Multicellular complex tumor spheroid response to LSD1 Inhibitor Iadademstat in combination with a variety of drugs and investigational agents in selected tumor cell lines
The current study was undertaken to assess response to LSD1 inhibitors in combination with standard-of-care drugs and investigational agents in solid tumor complex spheroid models as well as in the K-562 leukemia. Complex spheroids include a stromal component modeled by human endothelial cells (HUVEC) and fibroblasts modeled by human mesenchymal stem cells (MSCs). The concentration ranges selected for each drug and investigational agent were based upon clinically achievable concentrations if the clinical Cmax of the agent was known.
Compounds. The drugs and investigational agents used in this study are listed on Table 1. All of the agents used, including staurosporine (NSC755774) and gemcitabine (NSC613327), were obtained from the Developmental Therapeutics Program, NCI. FDA-approved anticancer drugs are available from the NCI at http://dtp.nci.nih.gov/branches/dscb/oncology_drugset_explanation.html. Drugs and investigational agents were >95% pure by proton nuclear magnetic resonance (NMR) and liquid chromatography/mass spectrometry (LC/MS). Stock solutions were prepared at 400x in DMSO, stored at -70 degrees C, and diluted in fresh medium prior to their use. The final concentration of DMSO in cell culture wells never exceeded 0.25% (v/v). The FDA-approved anticancer drug set is available from the Developmental Therapeutics Program at https://dtp.cancer.gov/organization/dscb/obtaining/available_plates.htm. All drugs and investigational agents were tested over a range starting from a high concentration at or near the clinical Cmax and decreasing in half-log increments. If the clinical Cmax for an agent had not been determined, the highest concentration tested was 10 microM.
Cell Lines. The patient-derived cancer cell (PDC) lines: 292921-168-R-J2-PDC, K24384-001-R-PDC, and 521955-158-R2-J5-PDC pancreatic carcinomas, 556581-035-R-J1 ovarian carcinoma, 324938-238-R-J1-PDC, 855422-203-R-J1-PDC and 883617-216-R-J1-PDC urothelial bladder carcinomas, 743489-274-T-PDC renal cell carcinoma, 138582-R-J1 Merkel cell tumor, K60290-347-R-J1 and K57222-313-R-J1-PDC glioblastomas, 653999-131-R-J2-PDC, LG0703-F948-PDC, and 349418-098-R-PDC non-small cell lung carcinomas, 885512-296-R-J2-PDC, 171881-019-R-J1-PDC breast carcinomas and 186277-243-T-J2-PDC and 233499-124-R-J2-PDC colon carcinomas were obtained from the NCI Patient-Derived Models Repository (PDMR, https://pdmr.cancer.gov). The established cell lines NCI/ADR-RES (RRID:CVCL_14520 and OVCAR-5 (RRID:CVCL_1628) ovarian carcinomas, 786-O (RRID:CVCL_1051) and A498 (RRID:CVCL_A498) renal cell carcinoma, NCI-H211 (ATCC, cat. CRL-5824; RRID:CVCL_1529), NCI-H196 (ATCC, cat. CRL-5823, RRID:CVCL_1509), SW 1271 (ATCC, cat. CRL-2177, RRID:CVCL_1716) and NCI-H1876 (ATCC, cat. CRL-5902, RRID:CVCL_1503) small cell lung carcinomas, MDA-MB-231 (RRID:CVCL_0062) and MDA-MB-468 (RRID:CVCL_0419)breast carcinomas (10-12). Pooled donor human umbilical vein endothelial cells (HUVEC, Lonza, cat. CC-2519) and human mesenchymal stem cells (hMSC, Lonza, cat. PT-2501) were purchased from Lonza (Walkersville, MD).
Cell Culture. All cells were maintained in an incubator at 37 degrees C and 5% CO2 with 95% humidity. The PDC lines were cultured according to standard operating procedures established by the NCI PDMR (https://pdmr.cancer.gov). Briefly all PDCs were thawed and cultured in Matrigel-coated flasks prepared with a working solution of 1X Ham's F-12 nutrient mix, without supplementation (Invitrogen, Waltham, MA, cat. 11765054), 100 U/mL penicillin-streptomycin (Invitrogen, cat. 15140122), and 2.5% Matrigel (Corning Inc., Corning, NY, cat. 354248) for the first three passages. […]

CC[C@@]1(O)C(=O)OCc2c1cc1n(c2=O)Cc2cc3c(CN(C)C)c(O)ccc3nc2-1 + NC1CC1c1ccc(-c2cccc(O)c2)cc1
1.8 nM: IC50 (second compound 0.316 µM)
active: viability, T/C (second compound 0.1 µM, first compound 0.01 µM) 10.4% | viability, T/C (second compound 0.1 µM, first compound 0.0316 µM) 6.25% | viability, T/C (second compound 0.1 µM, first compound 0.1 µM) 4.62% | viability, T/C (second compound 0.316 µM, first compound 0.01 µM) 9.15% | viability, T/C (second compound 0.316 µM, first compound 0.0316 µM) 6.84% | viability, T/C (second compound 0.316 µM, first compound 0.1 µM) 4.48% | viability, T/C (second compound 1 µM, first compound 0.01 µM) 9.89% | viability, T/C (second compound 1 µM, first compound 0.0316 µM) 6.39% | viability, T/C (second compound 1 µM, first compound 0.1 µM) 4.42% | viability, T/C (second compound 3.16 µM, first compound 0.01 µM) 10.3% | viability, T/C (second compound 3.16 µM, first compound 0.0316 µM) 7.55% | viability, T/C (second compound 3.16 µM, first compound 0.1 µM) 4.94% | viability, T/C (second compound 10 µM, first compound 0.0316 µM) 8.77% | viability, T/C (second compound 10 µM, first compound 0.1 µM) 6.56%
inactive: viability, T/C (second compound 0.1 µM, first compound 0.000316 µM) 102% | viability, T/C (second compound 0.1 µM, first compound 0.001 µM) 87.4% | viability, T/C (second compound 0.1 µM, first compound 0.00316 µM) 15.2% | viability, T/C (second compound 0.316 µM, first compound 0.000316 µM) 102% | viability, T/C (second compound 0.316 µM, first compound 0.001 µM) 86.2% | viability, T/C (second compound 0.316 µM, first compound 0.00316 µM) 15.2% | viability, T/C (second compound 1 µM, first compound 0.000316 µM) 104% | viability, T/C (second compound 1 µM, first compound 0.001 µM) 87% | viability, T/C (second compound 1 µM, first compound 0.00316 µM) 15.2% | viability, T/C (second compound 3.16 µM, first compound 0.000316 µM) 100% | viability, T/C (second compound 3.16 µM, first compound 0.001 µM) 81.5% | viability, T/C (second compound 3.16 µM, first compound 0.00316 µM) 15.6% | viability, T/C (second compound 10 µM, first compound 0.000316 µM) 97.8% | viability, T/C (second compound 10 µM, first compound 0.001 µM) 76.8% | viability, T/C (second compound 10 µM, first compound 0.00316 µM) 17.8% | viability, T/C (second compound 10 µM, first compound 0.01 µM) 15.2%
1.69 nM: IC50 (second compound 10 µM)
1.81 nM: IC50 (second compound 1 µM)
1.73 nM: IC50 (second compound 3.16 µM)
1.82 nM: IC50 (second compound 0.1 µM)
